# Source: ChEMBL document CHEMBL1153330, “Biochemical basis for differences in metabolism-dependent genotoxicity by two diazinylpiperazine-based 5-HT2C receptor agonists” (Bioorg Med Chem Lett, 2009)
# Legend:
# [1] = Metabolic stability in human liver microsomes; assay type: ADME, Microsome
# Cytochrome P450 3A4 = Cytochrome P450 3A4 (Homo sapiens, UniProt P08684); experiment: Inhibition of CYP3A4 in human liver microsomes; assay type: ADME, Microsome
# [2] = Metabolic stability in human liver microsomes in presence of CYP3A4 inhibitor ketoconazole; assay type: ADME, Microsome; details: with ketoconazole (CYP3A4 inhibitor), concentration not stated
# [3] = Metabolic stability in human liver microsomes in presence of CYP1A2 inhibitor furafylline; assay type: ADME, Microsome; details: with furafylline (CYP1A2 inhibitor), concentration not stated
# [4] = Metabolic stability in aroclor 1254-induced rat liver S9 fraction at 1 uM in presence of NADPH; assay type: ADME, subcellular
# Salmonella typhimurium [5] = experiment: Toxic mutagenic effect in Salmonella Typhimurium TA100 assessed as increase in reverse mutants at 0.63 mg/plate segment in presence of liver S9 fraction and NADPH by reverse mutation assay relative to untreated control; assay type: toxicity, organism-based; details: salmonella enterica subsp. enterica serovar typhimurium
# Salmonella typhimurium [6] = experiment: Toxic mutagenic effect in Salmonella Typhimurium TA1537 assessed as increase in reverse mutants at 0.63 mg/plate segment in presence of liver S9 fraction and NADPH by reverse mutation assay relative to untreated control; assay type: toxicity, organism-based; details: salmonella enterica subsp. enterica serovar typhimurium
# Salmonella typhimurium [7] = experiment: Toxic mutagenic effect in Salmonella Typhimurium TA1535 assessed as increase in reverse mutants at 5 mg/plate segment after 72 hrs at 37 degC in presence of aroclor 1254-induced rat liver S9 fraction by reverse mutation assay relative to untreated control; assay type: toxicity, organism-based; details: salmonella enterica subsp. enterica serovar typhimurium, s9, 72 h
# Salmonella typhimurium [8] = experiment: Toxic mutagenic effect in Salmonella Typhimurium TA1537 assessed as increase in reverse mutants at 5 mg/plate segment after 72 hrs at 37 degC by reverse mutation assay relative to untreated control; assay type: toxicity, organism-based; details: salmonella enterica subsp. enterica serovar typhimurium
# Salmonella typhimurium [9] = experiment: Toxic mutagenic effect in Salmonella Typhimurium TA98 assessed as increase in reverse mutants at 5 mg/plate segment after 72 hrs at 37 degC in presence of aroclor 1254-induced rat liver S9 fraction by reverse mutation assay relative to untreated control; assay type: toxicity, organism-based; details: salmonella enterica subsp. enterica serovar typhimurium, s9, 72 h
# Salmonella typhimurium [10] = experiment: Toxic mutagenic effect in Salmonella Typhimurium TA100 assessed as increase in reverse mutants at 5 mg/plate segment after 72 hrs at 37 degC by reverse mutation assay relative to untreated control; assay type: toxicity, organism-based; details: salmonella enterica subsp. enterica serovar typhimurium
# Salmonella typhimurium [11] = experiment: Toxic mutagenic effect in Salmonella Typhimurium TA1535 assessed as increase in reverse mutants at 5 mg/plate segment after 72 hrs at 37 degC by reverse mutation assay relative to untreated control; assay type: toxicity, organism-based; details: salmonella enterica subsp. enterica serovar typhimurium
# Salmonella typhimurium [12] = experiment: Toxic mutagenic effect in Salmonella Typhimurium TA98 assessed as increase in reverse mutants at 5 mg/plate segment after 72 hrs at 37 degC by reverse mutation assay relative to untreated control; assay type: toxicity, organism-based; details: salmonella enterica subsp. enterica serovar typhimurium
# Cytochrome P450 1A2 = molecular target: T1, Cytochrome P450 1A2 (Homo sapiens, UniProt P05177); experiment: Inhibition of CYP1A2 in human liver microsomes; assay type: ADME, Microsome
# T1 sequence (P05177 whole entry): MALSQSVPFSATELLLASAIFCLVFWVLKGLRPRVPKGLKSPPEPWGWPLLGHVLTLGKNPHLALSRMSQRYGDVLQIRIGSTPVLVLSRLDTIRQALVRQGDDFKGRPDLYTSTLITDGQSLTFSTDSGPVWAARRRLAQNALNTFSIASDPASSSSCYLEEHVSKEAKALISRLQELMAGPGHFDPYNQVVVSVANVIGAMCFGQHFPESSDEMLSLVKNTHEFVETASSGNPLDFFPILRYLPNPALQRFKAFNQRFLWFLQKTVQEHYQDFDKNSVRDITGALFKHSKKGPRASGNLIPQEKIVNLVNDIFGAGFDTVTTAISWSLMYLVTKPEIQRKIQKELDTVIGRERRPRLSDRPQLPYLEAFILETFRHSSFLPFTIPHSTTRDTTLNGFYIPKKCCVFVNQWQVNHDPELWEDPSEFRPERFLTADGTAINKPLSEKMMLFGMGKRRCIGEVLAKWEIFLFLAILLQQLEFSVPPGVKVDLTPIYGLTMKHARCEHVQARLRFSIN
# Salmonella typhimurium [13] = experiment: Toxic mutagenic effect in Salmonella Typhimurium TA1537 assessed as increase in reverse mutants at 5 mg/plate segment after 72 hrs at 37 degC in presence of aroclor 1254-induced rat liver S9 fraction by reverse mutation assay relative to untreated control; assay type: toxicity, organism-based; details: salmonella enterica subsp. enterica serovar typhimurium, s9, 72 h
# Chain of Cytochrome P450 3A4 (P08684 whole entry): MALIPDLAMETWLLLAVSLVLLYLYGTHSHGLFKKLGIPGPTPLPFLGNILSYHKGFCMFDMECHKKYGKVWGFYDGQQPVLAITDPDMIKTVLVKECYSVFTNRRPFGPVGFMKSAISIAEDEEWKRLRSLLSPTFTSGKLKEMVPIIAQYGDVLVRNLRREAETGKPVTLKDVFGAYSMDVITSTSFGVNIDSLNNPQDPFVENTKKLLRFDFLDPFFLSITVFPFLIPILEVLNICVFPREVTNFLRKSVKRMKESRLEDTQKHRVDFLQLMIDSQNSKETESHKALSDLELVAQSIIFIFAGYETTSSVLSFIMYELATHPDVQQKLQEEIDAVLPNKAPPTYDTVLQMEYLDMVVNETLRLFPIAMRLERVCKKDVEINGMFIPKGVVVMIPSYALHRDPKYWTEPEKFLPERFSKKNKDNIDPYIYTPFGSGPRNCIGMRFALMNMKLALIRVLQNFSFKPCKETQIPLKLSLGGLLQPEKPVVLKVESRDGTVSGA
SMILES,half-life [1] [min],IC50 (Cytochrome P450 3A4) [µM],half-life [2] [min],half-life [3] [min],half-life at 1 µM [4] [min],fold change (FC) (Salmonella typhimurium [5]),fold change (FC) (Salmonella typhimurium [6]),Activity (Salmonella typhimurium [7]),Activity (Salmonella typhimurium [8]),Activity (Salmonella typhimurium [9]),fold change (FC) (Salmonella typhimurium [10]),Activity (Salmonella typhimurium [11]),Activity (Salmonella typhimurium [12]),IC50 (Cytochrome P450 1A2) [µM],Activity (Salmonella typhimurium [13])
Clc1cccc(COc2cncc(N3CCNCC3)n2)c1,8,> 50,> 90,40,4,3,3,,,,,,,,
C[C@H](Cc1cccc(F)c1)Oc1nc(N2CCNC[C@H]2C)ncc1F,20,4.9,> 90,40,13,,,Non-toxic,Non-toxic,Non-toxic,1.34,Non-toxic,Non-toxic,0.4,Non-toxic
